Assay results reported in patent publication US8283344B2, “Method of treating inherited severe neutropenia” (Merck & Co., Inc., priority 2007, dated 2012).

Assays:
[1] = biological target: T1, Human Polymorphonuclear Leukocyte Elastase (Homo sapiens, UniProt P08246); test: Inhibition of human polymorphonuclear leukocyte elastase via hydrolysis of Boc-AAPAN or Boc-AAPVN; format: biochemical; details: second order rate constant for inactivation of the enzyme; crude human PMN extract, pH 7.5; to the nearest thousand; read-out: Kobs/[I]
T1 construct: Crude extract of human polymorphonuclear leukocytes (PMN) containing elastase activity; from tissue; host or cells: human polymorphonuclear leukocytes (crude extract)
T1 sequence (P08246 30-267): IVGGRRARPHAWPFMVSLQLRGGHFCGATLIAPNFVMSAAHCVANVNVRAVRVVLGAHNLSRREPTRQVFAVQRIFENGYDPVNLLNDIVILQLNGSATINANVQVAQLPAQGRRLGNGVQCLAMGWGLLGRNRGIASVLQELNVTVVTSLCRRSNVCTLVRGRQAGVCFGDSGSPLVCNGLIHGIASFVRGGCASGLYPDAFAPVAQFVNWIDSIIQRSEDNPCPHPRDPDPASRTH
Experimental: Enzyme Assays for the Inhibition of Human Polymorphonuclear Leukocyte Elastase Via Hydrolysis of N-t-Boc-alanyl-alanyl-prolylalanine-p-nitroanilide (Boc-AAPAN) or N-t-Boc-alanyl-[…] (Boc-AAPVN) Reagent: • 0.05M TES (N-tris[hydroxymethyl]methyl-2-mino-ethanesulfonic acid) Buffer, pH 7.5. 0.2 mM Boc-AAPAN or Boc-AAPVN.
To prepare substrate, the solid was first dissolved in 10.0 ml DMSO. Buffer at pH 7.5 was then added to a final volume of 100 ml.
Crude extract of human polymorphonuclear leukocytes (PMN) containing elastase activity.
Inhibitors (azetidinones) to be tested dissolved in DMSO just before use.
To 1.0 ml of 0.2 mM Boc-AAPAN in a cuvette, 0.01-0.1 ml of DMSO with or without inhibitor was added. After mixing, a measurement was taken at 410 mµ to detect any spontaneous hydrolysis due to presence of test compound. 0.05 Milliliters of PMN extract was then added and the ΔOD/min at 410 mµ was measured and recorded. Beckman model 35 spectrophotometer was used.
Results were expressed to the nearest thousand k obs/I which is the second order rate constant in per mole per second for inactivation of the enzyme.
The elastase activity in the crude PMN extract may vary from one preparation to another. A control of each new batch is run, and the volume added in the assay procedure is adjusted according to activity.

[2] = system: HL-60 cells expressing the del.145-152 mutNE; test: Cell growth and myeloid differentiation of HL-60 cells expressing del.145-152 mutNE; format: cell-based, human; details: HL-60 cells expressing del.145-152 mutNE treated with compound
Text: (§1) We have established a model of SCN with doxycycline-regulated expression of del.145-152 mutant NE in human promyelocytic tet-off HL-60 cells. The ratio of normal-to-mutant NE products is approximately 1:1, which is expected in SCN patients with heterozygous mutation. […] The reduced cell growth and accelerated apoptosis were also observed in response to mutNE expression. Thus, this cellular model of SCN appears to closely recapitulate the human phenotype.

[3] = system: control cells expressing normal elastase; test: Growth rate of control cells expressing normal elastase; format: cell-based, human; details: inhibition of NE activity
Text: as §1

neutrophil elastase (NE) = biological target: T2, neutrophil elastase (NE) (Homo sapiens, UniProt P08246, DEL174-181); test: NE activity in cellular SCN model (tet-off HL-60 cells expressing del.145-152 mutant NE); format: cell-based; details: human promyelocytic tet-off HL-60 cells
T2 construct: The ratio of normal-to-mutant NE products is approximately 1:1; expressed in transfected cells; host or cells: human promyelocytic tet-off HL-60 cells
T2 sequence (P08246 with tags, fused parts or gaps DEL174-181): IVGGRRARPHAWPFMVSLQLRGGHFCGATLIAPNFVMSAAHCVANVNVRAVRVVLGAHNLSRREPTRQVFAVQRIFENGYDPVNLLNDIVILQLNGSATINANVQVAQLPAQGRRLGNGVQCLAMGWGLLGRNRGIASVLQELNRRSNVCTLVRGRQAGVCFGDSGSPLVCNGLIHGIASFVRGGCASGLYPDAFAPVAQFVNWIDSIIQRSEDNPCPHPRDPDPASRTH
T2 sequence (P08246 30-267): T1 sequence (P08246 30-267)
Text: as §1

Row | Structure (SMILES) | kinact/KI [1] | further results
1 | CCC[C@@H](NC(=O)C1C(=O)C(CC)(CC)[C@@H]1Oc1ccc(C(=O)N2CCN(c3ncccn3)CC2)cc1)c1ccc(C)cc1 (stereo partly shown) [Compound 254] | 2.14e+06 M⁻¹ s⁻¹ | –
2 | CCC[C@@H](NC(=O)C1C(=O)C(CC)(CC)[C@@H]1Oc1ccc(C(=O)N2CCN(C(C)C)CC2)cc1)c1ccc(C)cc1 (stereo partly shown) [Compound 248] | 2.39e+06 M⁻¹ s⁻¹ | –
3 | CCC[C@@H](NC(=O)C1C(=O)C(CC)(CC)[C@@H]1Oc1ccc(C(=O)N2CCN(c3cccc(Cl)c3)CC2)cc1)c1ccc(C)cc1 (stereo partly shown) [Compound 244] | 2.45e+06 M⁻¹ s⁻¹ | –
4 | CCC[C@@H](NC(=O)C1C(=O)C(CC)(CC)[C@@H]1Oc1ccc(C(=O)N2CCN(c3ccc(F)cc3)CC2)cc1)c1ccc(C)cc1 (stereo partly shown) [Compound 243] | 7.49e+06 M⁻¹ s⁻¹ | –
5 | CCC[C@@H](NC(=O)C1C(=O)C(CC)(CC)[C@@H]1Oc1ccc(C(=O)N2CCN(CCC)CC2)cc1)c1ccc(C)cc1 (stereo partly shown) [Compound 253] | 1.77e+06 M⁻¹ s⁻¹ | –
6 | CCC[C@@H](NC(=O)C1C(=O)C(CC)(CC)[C@@H]1Oc1ccc(C(=O)N2CCN(C3CC3)CC2)cc1)c1ccc(C)cc1 (stereo partly shown) [Compound 256] | 3.59e+06 M⁻¹ s⁻¹ | –
7 | CCC[C@@H](NC(=O)C1C(=O)C(CC)(CC)[C@@H]1Oc1ccc(C(=O)N2CCN(CC(C)C)CC2)cc1)c1ccc(C)cc1 (stereo partly shown) [Compound 249] | 2.48e+06 M⁻¹ s⁻¹ | –
8 | CCC[C@@H](NC(=O)C1C(=O)C(CC)(CC)[C@@H]1Oc1ccc(C(=O)N2CCN(Cc3ccccc3)CC2)cc1)c1ccc(C)cc1 (stereo partly shown) [Compound 246] | 5.17e+06 M⁻¹ s⁻¹ | –
9 | CCC[C@@H](NC(=O)C1C(=O)C(CC)(CC)[C@@H]1Oc1ccc(C(=O)N2CCNCC2)cc1)c1ccc(C)cc1 (stereo partly shown) [Compound 247] | 1.1e+06 M⁻¹ s⁻¹ | –
10 | CCC[C@@H](NC(=O)C1C(=O)C(CC)(CC)[C@@H]1Oc1ccc(C(=O)N2CCN(CC)CC2)cc1)c1ccc(C)cc1 (stereo partly shown) [Compound 252] | 2.32e+06 M⁻¹ s⁻¹ | –
11 | CCC[C@@H](NC(=O)C1C(=O)C(CC)(CC)[C@@H]1Oc1ccc(C(=O)N2CCN(c3ccccc3)CC2)cc1)c1ccc(C)cc1 (stereo partly shown) [Compound 245] | 5.28e+06 M⁻¹ s⁻¹ | –
12 | CCC[C@@H](NC(=O)C1C(=O)C(CC)(CC)[C@@H]1Oc1ccc(C(=O)N2CCN(C)CC2)cc1)c1ccc(C)cc1 (stereo partly shown) [Compound 242] | 1.7e+06 M⁻¹ s⁻¹ | cell growth [2]: complete restoration of cell growth; myeloid differentiation [2]: increased myeloid differentiation; growth rate of control cells [3]: did not reduce the growth rate; inhibition of the NE activity (neutrophil elastase (NE)): more than 80%
